target: T1, human recombinant CBL-b (human Biotin CBL-b recombinant protein a.a. 39-426) (Homo sapiens, UniProt Q13191); experiment: Biochemical assay for CBL-b inhibition (ligand displacement TR-FRET); assay type: binding; settings: 50 nM CBL-b, 0.3 μM Bodipy FL-Probe, read-out: IC50 (CBL-b inhibition, group)
T1 construct: human Biotin CBL-b recombinant protein a.a; 39-426; Biotin (biotinylated); made in house
Procedure: The inhibitory activity of the test compounds was assessed by Ligand displacement TR-FRET assay. The human recombinant CBL-b (human Biotin CBL-b recombinant protein a.a. 39-426; synthesised in-house) was diluted in enzyme assay buffer (20 mM HEPES, 150 mM NaCl, 0.01% Triton X, 0.01% BSA, 0.5 mM TCEP) in a 10 μl volume and plated in 384-well plates (Cat #781075, Greiner) to a final concentration of 50 nM. The enzyme/compound mixture was incubated at RT for 60 min. The Bodipy FL-Probe described in WO 2020/210508 (synthesized in-house) diluted in enzyme assay buffer was added to the plate and incubated for 60 min RT, the final probe concentration was 0.3 μM. After 60 min incubation, 10 μl of detection mix (Terbium Streptavidin, (Cat #PV3576, Invitrogen) diluted in 1× Lance buffer) was added and incubated for 60 min at room temperature. Time-resolved fluorescence (excitation, 320 nm; emission donor, 615 nm; emission acceptor, 665 nm) was monitored by using 2030 multilabel reader Victor5 (PerkinElmer). The IC50 (concentration for half maximal inhibition) and % maximum inhibition of the compounds were estimated by fitting the dose response data to a sigmoidal curve fitting equation using Graph pad Prism software V. 8.

T1 sequence (Q13191 39-426): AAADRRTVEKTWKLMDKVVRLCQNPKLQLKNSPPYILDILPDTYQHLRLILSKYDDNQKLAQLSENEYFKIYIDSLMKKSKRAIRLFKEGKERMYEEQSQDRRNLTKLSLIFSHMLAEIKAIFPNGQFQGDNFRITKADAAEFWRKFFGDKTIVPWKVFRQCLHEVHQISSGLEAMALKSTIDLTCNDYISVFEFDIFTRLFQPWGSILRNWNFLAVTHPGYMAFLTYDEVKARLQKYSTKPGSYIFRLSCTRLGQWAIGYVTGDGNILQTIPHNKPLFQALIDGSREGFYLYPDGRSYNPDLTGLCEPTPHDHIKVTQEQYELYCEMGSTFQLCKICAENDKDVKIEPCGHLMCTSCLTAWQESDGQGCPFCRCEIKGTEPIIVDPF

IC50 [µM]	Compound
0.3 to 5	Cn1cc(CNCc2cc(Cl)nc(N3Cc4ccc(C5(Cc6nncn6C)COC5)cc4C3=O)c2)cn1 [Compound 211]
0.3 to 5	Cc1cc(CNC(C2CC2)C(F)(F)F)cc(N2Cc3ccc(-c4ccc(F)cc4-c4nncn4C)cc3C2=O)n1 (stereo not drawn) [Compound 324]
0.3 to 5	CC1CCC(C)N(Cc2cc(N3Cc4ccc(C5(Cc6nncn6C)COC5)cc4C3=O)nc(C(F)(F)F)c2)C1 (single isomer, unassigned) [Compound 139]
0.3 to 5	Cc1cncn1Cc1cc(N2Cc3ccc(C4(Cc5nncn5C)COC4)cc3C2=O)nc(C(F)(F)F)c1 [Compound 69, 2-(4-((5-Methyl-1H-imidazol-1-yl)methyl)-6-(trifluoromethyl)pyridin-2-yl)-6-(3-((4-methyl-4H-1,2,4-triazol-3-yl)methyl)oxetan-3-yl)isoindolin-1-one]
0.08 to 0.3	C[C@H]1CCCN(Cc2ccnc(N3Cc4ccc(C5(Cc6nncn6C)COC5)cc4C3=O)c2)C1 [Compound 149]
0.3 to 5	Cn1ccc(CNCc2cc(Cl)nc(N3Cc4ccc(C5(Cc6nncn6C)COC5)cc4C3=O)c2)n1 [Compound 212]

Continued, compound first:

Compound	IC50 [µM]
Cc1cc(C(C)c2cnn(C)c2)cc(N2Cc3ccc(-c4ccc(F)cc4-c4nncn4C)cc3C2=O)n1 (stereo not drawn) [Compound 333, 6-(4-Fluoro-2-(4-methyl-4H-1,2,4-triazol-3-yl)phenyl)-2-(6-methyl-4-(1-(1-methyl-1H-pyrazol-4-yl)ethyl)pyridin-2-yl)isoindolin-1-one]	0.3 to 5
Cn1cnnc1CC1(c2ccc3c(c2)C(=O)N(c2cc(CNCC4COC4)cc(Cl)n2)C3)COC1 [Compound 183]	0.08 to 0.3
Cn1cnnc1CC1(c2ccc3c(c2)C(=O)N(c2cc(CNC4CCCC4O)cc(Cl)n2)C3)COC1 (single isomer, unassigned) [Compound 209, 2-(6-Chloro-4-(((2-hydroxycyclopentyl)amino)methyl)pyridin-2-yl)-6-(3-((4-methyl-4H-1,2,4-triazol-3-yl)methyl)oxetan-3-yl)isoindolin-1-one]	< 0.08
Cn1cnnc1CC1(c2ccc3c(c2)C(=O)N(c2cc(CN4CCC5OCCC54)cc(Cl)n2)C3)COC1 (stereo not drawn) [Compound 192]	0.3 to 5
Cc1cc(C(C)c2nccn2C)cc(N2Cc3ccc(-c4ccc(F)cc4-c4nncn4C)cc3C2=O)n1 (stereo not drawn) [Compound 334, 6-(4-Fluoro-2-(4-methyl-4H-1,2,4-triazol-3-yl)phenyl)-2-(6-methyl-4-(1-(1-methyl-1H-imidazol-2-yl)ethyl)pyridin-2-yl)isoindolin-1-one]	0.3 to 5
Cn1cnnc1CC1(c2ccc3c(c2)C(=O)N(c2cc(CNC45CC(C4)C5)cc(Cl)n2)C3)COC1 [Compound 235]	0.08 to 0.3
Cc1cc(CNC(C)(C)CCO)cc(N2Cc3ccc(-c4ccc(Cl)cc4-c4nncn4C)cc3C2=O)n1 [Compound 276]	0.08 to 0.3
CO[C@H]1CCN(Cc2cc(C)nc(N3Cc4ccc(-c5ccc(F)cc5-c5nncn5C)cc4C3=O)c2)C1 [Compound 290]	0.3 to 5
CN1CCC/C(=C/c2cc(Cl)nc(N3Cc4ccc(C5(Cc6nncn6C)COC5)cc4C3=O)c2)C1 [Compound 335, (Z)-2-(6-Chloro-4-((1-methylpiperidin-3-ylidene)methyl)pyridin-2-yl)-6-(3-((4-methyl-4H-1,2,4-triazol-3-yl)methyl)oxetan-3-yl)isoindolin-1-one]	0.08 to 0.3
CC1CCC(C)N(Cc2cc(N3Cc4ccc(C5(Cc6nncn6C)COC5)cc4C3=O)nc(C(F)(F)F)c2)C1 (single isomer, unassigned) [Compound 140]	0.3 to 5
CCNCCc1cc(N2Cc3ccc(C4(Cc5nncn5C)COC4)cc3C2=O)cc(C(F)(F)F)c1 [Compound 75, 2-(3-(2-(Ethylamino)ethyl)-5-(trifluoromethyl)phenyl)-6-(3-((4-methyl-4H-1,2,4-triazol-3-yl)methyl)oxetan-3-yl)isoindolin-1-one]	0.3 to 5
Cc1cccc(CNCc2cc(Cl)nc(N3Cc4ccc(C5(Cc6nncn6C)COC5)cc4C3=O)c2)n1 [Compound 229]	0.3 to 5
